Experimental findings from paper PMC9181852, “In Vivo and In Vitro Biological Evaluation and Molecular Docking Studies of Compounds Isolated from Micromeria biflora (Buch. Ham. ex D.Don) Benth” (Molecules, 2022) are described below.

Assay [1] deals with HepG2. The assay is described as follows: Anticancer MTT assay, HepG2. It counts as cell-based. The settings on record: Homo sapiens, 24 h. As to the method: (§1) The MTT assay was used to assess the cytotoxicity of salicylalazine isolated from M. biflora as per the previously documented method. For the MTT assay, Gibco BRL was combined with 100 µg/mL of penicillin sodium salts, 10% FBS (Gibco), and sodium carbonate (2 mg/mL). The prepared medium was used to keep three human cancer cell lines: human hepatoma (HepG2), human A498, and renal NCI-h226 non-small cell lung). Mouse hepatocytes, including HepG2 and HepG-R, were planted in 96-well plates. The cell lines were preserved with salicylalazine (1.5–100 μM), hatched for 24 h, and then they were tracked using the MTT procedure^14. This method was used for all tested cell lines. The IC50 value of salicylalazine in different cell lines was calculated from the concentration-effect curves. The standard drug used in this experiment was paclitaxel.

In assay [2] the test system is A498. The assay is described as follows: Anticancer MTT assay, A498. It counts as cell-based. The conditions noted are these: Homo sapiens, 24 h. As to the method:
as §1

For assay [3], the system named is NCI-H226. The experiment in a line: Anticancer MTT assay, NCI-H226. It counts as cell-based. The settings on record: Homo sapiens, 24 h. As to the method: as §1
(Formazan colour is commonly taken as a measure of viable cells.)

For assay [4], the system named is MDR2780AD. The experiment in a line: Anticancer MTT assay, MDR2780AD. The conditions noted are these: 24 h. It counts as cell-based.
A short description of assay [5]: Inclined plane muscle relaxation model. The format is in vivo, mice (Balb/c). The settings on record: dose 1 mg/kg. The procedure: (§2) Healthy mice (Balb/c) with weight ranging from 20 to 22 g and ages 9 to 10 weeks were used in this screening model. The grown animals were provided with standard laboratory conditions such as standard food and water ad libitum. The in vivo biological screening test was performed at the Department of Veterinary Medicine, College of Agriculture and Veterinary Medicine, Qassim University Buraydah, Saudi Arabia, as well as Swabi University, KP, Pakistan, according to published procedures.
An inclined plane screening procedure was adapted to identify the muscle relaxation effects of salicylalazine isolated from M. biflora according to a reported procedure. The inclined plane used in screening contained two plywood boards, and these boards were connected, where one board was at 60 0 from the base while the other one was aligned from the base. Various groups of animals were distributed into several groups; each group comprised six animals (n = 6). Animals in each group were administered water (10 mL/kg), standard drug (diazepam, 1 mg/kg), and salicylalazine at different doses of 2.5, 5, 10, 15, and 20 mg/kg, i.p. After various time intervals, such as 30, 60, and 90 min post-administration, animals were allowed on the higher part of the inclined plane for 30 s to drop or hang.

The nature of assay [6]: Traction muscle relaxation model. It counts as in vivo, mice (Balb/c). The settings on record: dose 1 mg/kg. The procedure:
as §2
A traction screening model was adapted to identify the relaxation of muscle for salicylalazine isolated from M. biflora according to the standard method. The traction model was considered by using metallic wires covered with rubber, and then the wires were linked with each other using a stand around 60 cm upstairs of the lab bench. The animals were distributed into different groups, with each group comprising six animals (n = 6). The various groups of animals were administered water, diazepam, and salicylalazine at different doses. After administration, all groups of animals were subjected to traction screening after 30, 60, and 90 min. […] Traction testing was repeatedly performed to calculate the muscle relaxant ability of salicylalazine as per the reported method.

Assay [7] in a line: Open field sedative test. The conditions noted are these: dose 0.5 mg/kg, 30 min after administration. The format is in vivo, mice (Balb/c). As to the method: as §2
The sedative potential of salicylalazine isolated from M. biflora was assessed as per the reported procedure. The animals were divided into different groups, as designated above. The apparatuses used in this screening contained an area of white wood with a 150 cm diameter bordered by stainless steel walls and was separated into 19 squares by black lines. Then, the open field apparatus was positioned inside the light and sound-reduced room. The different groups of animals were administered distilled water, diazepam, and salicylalazine at different doses. Thirty minutes after administration, all groups of animals were permitted to move from the center of the design box. […] Statistical calculations were performed by counting the number of lines crossed by every animal.

The nature of assay [8]: Hot plate analgesic test. The format is in vivo, mice (Balb/c). The conditions noted are these: dose 10 mg/kg. As to the method: as §2
The analgesic effect of salicylalazine isolated from M. biflora was obtained with help of a hot plate according to the published method. The animals were distributed into different groups according to the previously reported method. A preliminary screening test was performed on the animals using a hot plate (Harvard apparatus) sustained at 55 ± 2 °C. […] Group I (positive control) was administered with the standard drug, while Group II (negative control) was administered with normal saline. The other groups of animals were administered with 2.5, 5, 10, 15, and 20 mg/kg (PO). […] To avoid tissue damage, a cut-off time of 30 s was used for every animal. The latency time was recorded for all groups (n = 6) at consistent intervals (30, 60, 90, and 120 min).

Each structure is given as a SMILES string.

Turning to `CC(=O)O[C@H]1C(=O)[C@@]2(C)[C@H]([C@H](OC(=O)c3ccccc3)[C@]3(O)C[C@H](OC(=O)[C@H](O)[C@@H](NC(=O)c4ccccc4)c4ccccc4)C(C)=C1C3(C)C)[C@]1(OC(C)=O)CO[C@@H]1C[C@@H]2O` [Paclitaxel, reference compound], the IC50 (usually the concentration at which inhibition is half-maximal) in assay [1] stood at 7.51 ± 0.3 µM; in assay [2], 95.23 ± 0.23 µM; in assay [3], 61.29 ± 0.31 µM; in assay [4], 0.18 ± 0.008 µM.
As to `CN1C(=O)CN=C(c2ccccc2)c2cc(Cl)ccc21` [Diazepam, reference compound], the “Inclined Plane Test (%)” value in assay [5] (30 min), in assay [5] (60 min) and in assay [5] (90 min) was 100 ± 0.00% in each case. Also, the “Traction Test (%)” value in assay [6] (30 min), in assay [6] (60 min) and in assay [6] (90 min) was 100 ± 0.00% in each case. Also, the “No of Lines Crossed” value in assay [7] amounted to 9.01 ± 0.51.
Regarding `COc1cccc(C2(O)CCCCC2CN(C)C)c1` (stereo not drawn) [Tramadol, reference compound], the “Latency time on hot plate” value was determined as 24.30 ± 0.07 s in assay [8] (30 min), 25.90 ± 0.08 s in assay [8] (60 min), 24.80 ± 0.14 s in assay [8] (90 min) and 24.68 ± 0.40 s in assay [8] (120 min).
